Test results taken from patent US9624161B2 (priority 2009, dated 2017).
Several values for one entry are separate records, joined by “and”; a condition that tells them apart may be missing. Equal values may be shown once.

Assays:
Human 17β-HSD5 = molecular target: T1, Human 17β-HSD5 (Homo sapiens, UniProt P42330); test: 17β-HSD5 enzyme activity (14C androstenedione to testosterone, TLC); format: biochemical; conditions: purified protein, NADPH (FIG. 3)
T1 construct: GST (inferred from pGEX 4t1 vector; own knowledge) (N); made in house
T1 sequence (P42330 whole entry): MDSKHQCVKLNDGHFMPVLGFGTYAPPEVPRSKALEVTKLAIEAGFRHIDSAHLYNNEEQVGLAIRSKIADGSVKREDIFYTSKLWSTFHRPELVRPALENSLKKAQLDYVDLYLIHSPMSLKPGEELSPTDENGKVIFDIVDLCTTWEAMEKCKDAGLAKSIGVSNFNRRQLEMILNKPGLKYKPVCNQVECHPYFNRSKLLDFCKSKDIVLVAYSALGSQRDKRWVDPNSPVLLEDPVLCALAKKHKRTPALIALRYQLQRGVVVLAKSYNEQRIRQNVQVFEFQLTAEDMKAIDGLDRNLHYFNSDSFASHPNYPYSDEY

[1] = test system: human peripheral blood lymphocytes; test: Chromosomal aberrations in human peripheral blood lymphocytes in vitro; format: cell-based; conditions: concentrations up to 200 μM
Excerpt: Compound IV was well-tolerated by rats and dogs after single and repeated oral administration (up to 28 days).

[2] = test system: men with castration resistant prostate cancer (CRPC); test: Study 3: Compound IV 2000 mg daily in men with castration resistant prostate cancer maintained on ADT; format: in vivo, human; conditions: for Percentage of treated patients already on ADT (ITT population) below the free T cutoff of 0.5 pg/ml: Study 3, CRPC
Experimental: Men with CRPC (n=9) received 2000 mg Compound IV daily. The primary endpoint of the study was the proportion of subjects with a greater than or equal to 50% reduction in prostate specific antigen (PSA) from Day 1. Secondary endpoints included serum free T and SHBG which together with PSA were assessed at days 1, 15, 30, 60 and 90. Serum concentrations of total T, free T, SHBG and PSA were determined at baseline and during treatment.
A study (Study 3) was conducted to assess the effects of Compound IV on serum PSA progression in men with castration resistant prostate cancer who have been effectively treated with ADT and at the time of enrollment into this study have shown serum PSA progression. This study consisted of one dose arm with 9 subjects.
The subjects were 12 male subjects over age 18 years with castration resistant prostate cancer, who were being treated with androgen deprivation therapy (chemical or surgical castration) for at least 6 months, that have serum PSA >2 ng/mL or […] a 25% increase above the nadir after the initiation of androgen deprivation therapy (ADT) at study enrollment. The subjects were maintained on androgen deprivation therapy throughout the study.
The dose selected for the study was 2000 mg Compound IV. Four Compound IV tablets, 500 mg (2000 mg dose) were orally administered daily. […] Subjects received 2000 mg of Compound IV daily by mouth until study termination. Dosing was to be continued until their serum PSA had increased at least 25% and 2 ng/mL from the nadir at two successive sample times (approximately 30 days apart) after initiation of treatment with Compound IV. The prostate cancer working group (PCWG) definition of PSA progression was used (serum PSA has increased at least 25% and 2 ng/mL above the nadir after initiation of treatment with Compound IV on two successive sample times).
Assessments of serum PSA concentration were made at baseline and on Days 15, 30, and 60 (only 1 patient made it this far before study was terminated).
The proportion of subjects with a 50% decline from baseline in serum PSA (confirmed by a second PSA assessment at least one week later).

[3] = test system: healthy older male volunteers; test: Study 4: proof of concept study in healthy older male volunteers (1000, 1500, 2000 mg tablets, 28 days); format: in vivo, human; conditions: each dose arm (1000, 1500, 2000 mg)
[4] = test system: healthy young male volunteers; test: Study 1: 56 day proof of concept study in healthy young male volunteers (600, 1000, 1500 mg); format: in vivo, human; conditions: for BSAP change / FSH change / Free testosterone change / Osteocalcin change / SHBG change / Total testosterone change / serum PSA change: castrated subjects
Experimental: A 56 day, proof of concept study of Compound IV was conducted in healthy young male volunteers. (Table 22 and Table 23 below). […] The free testosterone levels were reduced to levels below the levels expected from surgical castration or those expected from chemical castration with LHRH agonists or antagonists. This is due to a dose dependent increase in sex hormone binding globulin (SHBG) that is observed with Compound IV.

healthy human subjects = test: Single and multiple dose studies in healthy human subjects; format: in vivo; conditions: for Subjects with decreased total testosterone levels: multiple doses
Experimental: There were observations of elevated ALT levels above the upper limit of normal in four subjects in the multiple dose study (3 subjects in the 1000 mg group and 1 subject in the 600 mg group). The highest single observed value of ALT was 129 IU/L or 2.6 times the upper limit of normal. Aspartate aminotransferase levels were also elevated in this subject to 1.9 times the upper limit of normal.
Serum total testosterone levels were assessed throughout the multiple doses study. Total testosterone levels were decreased in 100% (10/10) of the subjects in the 600 mg dose group and 90% (9/10) of the subjects in the […] dose group. The levels of total testosterone were decreased to below the lower limit of normal in 40% (4/10) of the subjects in the 600 mg dose group and 50% (5/10) of the subjects in the 1000 mg dose group.

[5] = test system: sexually mature male cynomolgus monkeys; test: 39-week oral pharmacology and toxicology study in male cynomolgus monkeys (13-week interim); format: in vivo, cynomolgus monkey
[6] = 600 mg, sufficiently compliant subjects
[7] = 1000 mg, sufficiently compliant subjects
[8] = 1500 mg, sufficiently compliant subjects

## O=C(c1ccc(O)c(F)c1)N(c1ccc(O)cc1)c1ccc(F)cc1 [Compound IV, 3-fluoro-N-(4-fluorophenyl)-4-hydroxy-N-(4-hydroxyphenyl)benzamide]
Human 17β-HSD5
  Effect on 17β-HSD5 enzyme activity: partial inhibitory effect
[1]
  Structural or numeric chromosomal aberrations: did not induce
[2]; 15 days, men maintained on ADT with LHRH agonists alone
  Free T reductions and PSA decreases from baseline: in all of the men
[2]; CRPC patients on ADT
  Effect on serum total T levels: did not further reduce
[2]; Day 15
  Reduction in % FreeT: greater than 50%
[2]; 15 days on therapy
  Percentage of treated patients already on ADT (ITT population) below the free T cutoff of 0.5 pg/ml: 85.7%
[2]; 30 days on therapy
  Percentage of treated patients already on ADT (ITT population) below the free T cutoff of 0.5 pg/ml: 66.7%
[2]; 60 days on therapy
  Percentage of treated patients already on ADT (ITT population) below the free T cutoff of 0.5 pg/ml: 100%
[2]; after two weeks
  Patients with greater than 50% reduction in PSA: 3 of 7
[2]; day 15
  Men that reached free T below 0.5 pg/mL: 85.7%
[2]; day 30
  Men that reached free T below 0.5 pg/mL: 66.7%
[2]; day 60
  Men that reached free T below 0.5 pg/mL: 100%
[2]; seven evaluable subjects
  Subjects with a reduction in serum PSA from baseline to Day 15: All seven
[2]; subjects with at least 30 days of exposure
  Subjects with >50% reduction in serum PSA: all three and 2 of 3
[3]
  SHBG increase over baseline: 300-600%
[4]; [6]
  % subjects castrated: 0% ^
  BSAP % change from baseline to final observation: −18.7 ± 18.8%
  FSH % change from baseline to final observation: −48.4 ± 53.9%
  Free testosterone % change from baseline to final observation: −32.9 ± 43.2%
  Osteocalcin % change from baseline to final observation: −32.8 ± 11.1%
  SHBG % change from baseline to final observation: +363 ± 139%
  Total testosterone % change from baseline to final observation: +22.1 ± 51.9%
  serum PSA % change from baseline to final observation: −43.8 ± 21.1%
[4]; 1000 mg
  BSAP change: 6.0 ± 29%
  FSH change: −91 ± 5.2%
  Free testosterone change: −98.2 ± 0.146%
  Osteocalcin change: −20 ± 15%
  SHBG change: 471 ± 102%
  Total testosterone change: −94.7 ± 0.228%
  serum PSA change: −52 ± 28%
[4]; [7]
  % subjects castrated: 75% ^
  BSAP % change from baseline to final observation: −5.97 ± 31.6%
  FSH % change from baseline to final observation: −78.4 ± 29.4%
  Free testosterone % change from baseline to final observation: −86.4 ± 26.4%
  Osteocalcin % change from baseline to final observation: −21.4 ± 14.4%
  SHBG % change from baseline to final observation: +446 ± 130%
  Total testosterone % change from baseline to final observation: −63.0 ± 59.9%
  serum PSA % change from baseline to final observation: −42.8 ± 30.2%
[4]; 1500 mg dose group, by Day 28, sufficiently compliant subjects
  Subjects that reached castrate levels of total testosterone: 90%
[4]; 1500 mg
  BSAP change: −19 ± 21%
  FSH change: −88 ± 4.8%
  Free testosterone change: −97.7 ± 0.155%
  Osteocalcin change: −23 ± 17%
  SHBG change: 524 ± 212%
  Total testosterone change: −92.8 ± 0.65%
  serum PSA change: −43 ± 24%
[4]; [8]
  % subjects castrated: 92% ^
  BSAP % change from baseline to final observation: −21.1 ± 17.0%
  FSH % change from baseline to final observation: −89.7 ± 5.07%
  Free testosterone % change from baseline to final observation: −97.5 ± 1.64%
  Osteocalcin % change from baseline to final observation: −18.2 ± 18.7%
  SHBG % change from baseline to final observation: +591 ± 258%
  Total testosterone % change from baseline to final observation: −90.6 ± 9.67%
  serum PSA % change from baseline to final observation: −48.1 ± 17.0%
[4]; each dose arm (600, 1000, 1500 mg), Study 1
  SHBG increase over baseline: 300-600%
Healthy human subjects; 600 mg dose group
  Subjects with total testosterone below the lower limit of normal: 40%
  Subjects with decreased total testosterone levels: 100%
Healthy human subjects; 997 mg dose group
  Subjects with decreased total testosterone levels: 90%
Healthy human subjects; 1000 mg dose group
  Subjects with total testosterone below the lower limit of normal: 50%
Healthy human subjects; all subjects
  Time for total testosterone to return to normal after discontinuation: ≤ 6 days
Healthy human subjects; any subject in the trial
  Elevations in total bilirubin: no observations of elevations
Healthy human subjects; healthy human subjects
  Well tolerated single doses: up to 1247 mg
Healthy human subjects; healthy human subjects, up to 10 days
  Well tolerated multiple doses: up to 997 mg
Healthy human subjects; multiple dose study
  Aspartate aminotransferase elevation in the same subject: 1.9 times the upper limit of normal
Healthy human subjects; multiple dose study, 600 mg group
  Subjects with ALT above the upper limit of normal: 1 subject
Healthy human subjects; multiple dose study, 1000 mg group
  Subjects with ALT above the upper limit of normal: 3 subjects
Healthy human subjects; multiple doses study
  Subjects with total testosterone below 1.73 nmol/L (castrate range): no subject
[5]; 100 mg/kg/day oral, after 90 days, Group 4
  Monkeys with testosterone below the limit of quantification: 6 of 10
[5]; any Compound IV dose, up to 100 mg/kg/day
  Initial testosterone flare: not observed
